Consider 16 compounds from ChEMBL document CHEMBL1149487, “A structure-guided approach to an orthogonal estrogen-receptor-based gene switch activated by ligands suitable for in vivo studies” (J Med Chem, 2006).

Calls of active or inactive are those of the source. The rule behind the calls is not given here.

Series [1] has as its target T1, Estrogen receptor beta (Homo sapiens, UniProt Q92731).
Series [2] has as its target T2, Estrogen receptor (Homo sapiens, UniProt P03372).
T2 sequence (P03372 whole entry): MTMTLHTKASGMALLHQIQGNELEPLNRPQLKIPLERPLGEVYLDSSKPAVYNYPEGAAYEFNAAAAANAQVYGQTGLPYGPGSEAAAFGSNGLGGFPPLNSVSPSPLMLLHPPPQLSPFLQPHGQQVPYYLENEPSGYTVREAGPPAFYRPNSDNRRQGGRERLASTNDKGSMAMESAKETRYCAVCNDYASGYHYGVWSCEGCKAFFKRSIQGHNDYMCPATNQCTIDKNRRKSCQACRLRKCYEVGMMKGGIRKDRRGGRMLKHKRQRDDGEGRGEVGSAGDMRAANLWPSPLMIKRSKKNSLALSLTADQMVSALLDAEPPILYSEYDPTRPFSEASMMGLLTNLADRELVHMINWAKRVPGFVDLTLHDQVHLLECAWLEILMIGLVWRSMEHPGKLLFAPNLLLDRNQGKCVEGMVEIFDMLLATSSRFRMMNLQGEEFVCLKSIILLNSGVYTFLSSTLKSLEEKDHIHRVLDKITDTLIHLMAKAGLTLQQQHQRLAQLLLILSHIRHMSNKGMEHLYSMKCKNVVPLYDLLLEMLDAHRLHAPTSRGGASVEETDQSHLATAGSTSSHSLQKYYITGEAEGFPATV
Description: Binding affinity to human ER alpha

For series [3], the target named is Estrogen receptor (Homo sapiens, UniProt P03372, G521R/L384M/M421G).
Chain of Estrogen receptor (Homo sapiens, UniProt P03372, G521R/L384M/M421G) (P03372 whole entry L384M/M421G/G521R): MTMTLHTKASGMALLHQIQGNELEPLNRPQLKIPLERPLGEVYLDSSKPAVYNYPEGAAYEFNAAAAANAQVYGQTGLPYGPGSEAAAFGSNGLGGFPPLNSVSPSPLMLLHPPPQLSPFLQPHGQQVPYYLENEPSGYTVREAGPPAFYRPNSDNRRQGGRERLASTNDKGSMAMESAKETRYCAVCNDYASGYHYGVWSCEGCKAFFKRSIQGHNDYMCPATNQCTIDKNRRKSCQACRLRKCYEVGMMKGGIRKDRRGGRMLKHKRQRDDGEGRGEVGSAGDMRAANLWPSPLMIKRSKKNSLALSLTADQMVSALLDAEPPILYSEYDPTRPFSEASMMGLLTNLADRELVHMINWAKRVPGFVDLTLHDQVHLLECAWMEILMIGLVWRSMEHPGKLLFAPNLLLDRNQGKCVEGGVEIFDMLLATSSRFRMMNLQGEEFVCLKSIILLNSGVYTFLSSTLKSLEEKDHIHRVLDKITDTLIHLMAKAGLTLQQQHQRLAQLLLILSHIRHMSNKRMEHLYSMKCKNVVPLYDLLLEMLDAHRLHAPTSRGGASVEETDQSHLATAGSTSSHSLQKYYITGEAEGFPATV
Series [4] is described as follows: Clearance in rat at 3 mg/kg, iv. Particulars: in vivo. More on the design: dose 3 mg/kg, route intravenous. It is filed as ADME, organism-based.
A short description of series [5]: Terminal half life in rat at 3 mg/kg, iv. The format is ADME, organism-based. More on the design: dose 3 mg/kg, route intravenous. The conditions noted are these: in vivo, read-out: beta t1/2 (converted).
In series [6] the target is T3, Estrogen receptor (Homo sapiens) (UniProt P03372).
T3 sequence (whole entry): T2 sequence (P03372 whole entry)
It is filed as functional, cell-based. Particulars: HeLa.

Series [7] deals with T1, Estrogen receptor beta. Briefly: Binding affinity to human ER beta upto 10 uM.
The target of series [8] is T2, Estrogen receptor. Briefly: Binding affinity to wild type ERalpha.
A short description of series [9]: Cmax in BALB/c mouse at 4 mg/kg, ip. The format is ADME, organism-based. More on the design: dose 4 mg/kg, route intraperitoneal. The conditions noted are these: in vivo.

T1 sequence (Q92731 whole entry): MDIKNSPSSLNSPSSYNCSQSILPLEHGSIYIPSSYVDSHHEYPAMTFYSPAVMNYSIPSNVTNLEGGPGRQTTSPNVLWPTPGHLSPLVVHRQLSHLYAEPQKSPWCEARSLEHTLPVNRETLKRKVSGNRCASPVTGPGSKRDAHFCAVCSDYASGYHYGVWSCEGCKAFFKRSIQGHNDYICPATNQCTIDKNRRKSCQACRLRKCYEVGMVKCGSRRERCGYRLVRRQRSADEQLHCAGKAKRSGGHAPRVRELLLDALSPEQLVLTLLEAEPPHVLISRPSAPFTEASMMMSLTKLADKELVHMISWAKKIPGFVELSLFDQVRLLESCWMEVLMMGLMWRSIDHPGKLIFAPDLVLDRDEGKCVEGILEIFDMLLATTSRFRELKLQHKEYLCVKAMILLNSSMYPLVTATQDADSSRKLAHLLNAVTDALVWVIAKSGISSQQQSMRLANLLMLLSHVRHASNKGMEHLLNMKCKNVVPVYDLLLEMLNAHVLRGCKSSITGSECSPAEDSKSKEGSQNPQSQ

As for `CC1=C2c3ccc4nn[nH]c4c3CC2(Cc2ccc(F)cc2)CCC1=O` (configuration not stated), the 50% inhibitory concentration (IC50) (as a rule, the concentration needed to halve the response being measured) in [1] was greater than 10000 nM.
Consider `CC1=C2c3ccc4[nH]ncc4c3CC2(Cc2ccccc2F)CCC1=O` (configuration not stated), for which the IC50 in [2] turned out to be 3400 nM; in series [1], 560 nM.
Consider `O=C1CCC2(Cc3ccccc3)Cc3c(ccc4[nH]ncc34)C2=C1c1ccc(OCCN2CCCCC2)cc1` (configuration not stated), for which the results for the IC50 in [2] and in series [1] were 620 nM and 130 nM, respectively. Further, the response in series [3] was half-maximal at 300 nM (EC50).
In turn, `CC1=C2c3ccc4[nH]ncc4c3CC2(Cc2ccc(F)cc2)CCC1=O` (configuration not stated) registered an IC50 in series [1] greater than 1000 nM.
`O=C1CCC2(Cc3ccccc3)Cc3cc(O)ccc3C2=C1c1ccc(OCCN2CCCCC2)cc1` (configuration not stated): the clearance (in general, the volume of plasma or blood freed of the substance per unit of time) in series [4] came out at 22 mL/min/kg. Also, the half-life in [5] is 2 h. For the same compound, the IC50 in [2] stood at 380 nM; in series [1], 180 nM. The EC50 (usually the concentration needed to bring the measured effect to its halfway point) in series [3] came to 14 nM.
For the compound `CC1=C2c3ccc(O)cc3CC2(Cc2ccccc2)CCC1=O` (configuration not stated), the IC50 in [2] worked out at 1500 nM.
On to `O=C1CCC2(Cc3ccccc3)Cc3cc(O)ccc3C2=C1c1ccc(O)cc1` (configuration not stated), for which, in series [4], the clearance came to 39 mL/min/kg. Besides, the half-life in [5] is 1.5 h. Moreover, the values for the IC50 in series [2] and in series [1] were 220 nM and 100 nM, respectively. In series [3], this compound showed an EC50 of 11 nM.
Turning to `CC1=C2c3ccc4[nH]ncc4c3CC2(Cc2ccccc2)CCC1=O` (configuration not stated), the outcome in series [6] was inactive. Further, the IC50 is greater than 10000 nM in series [2] and 1200 nM in series [1].
On to `CC1=C2c3ccc4nn[nH]c4c3CC2(Cc2ccccc2)CCC1=O` (configuration not stated), for which the results for the IC50 in series [2] and in [1] were greater than 10000 nM and 5800 nM, respectively.
With `CC1=C2c3ccc4[nH]nnc4c3CC2(Cc2ccc(F)cc2)CCC1=O` (configuration not stated), the result in series [7] was inactive.
In series [8], `CC1=C2c3ccc(O)cc3CC2(Cc2ccc(Cl)cc2)CCC1=O` (configuration not stated) displayed a 50% inhibitory concentration (IC50) of 6800 nM.
For `O=C1CCC2(Cc3ccccc3)Cc3cc(O)ccc3C2=C1c1ccc(OCCN2CCOCC2)cc1` (configuration not stated), the IC50 in [2] came out at 710 nM; in [1] it was 230 nM.
`CN(C)CCOc1ccc(C2=C3c4ccc(O)cc4CC3(Cc3ccccc3)CCC2=O)cc1` (configuration not stated): the values for the IC50 in series [2] and in [1] were 1200 nM and 560 nM, respectively.
In the case of `O=C1CCC2(Cc3ccc(Cl)cc3)Cc3cc(O)ccc3C2=C1c1ccc(OCCN2CCCCC2)cc1` (configuration not stated), the concentration in series [9] peaked (Cmax) at 500 nM. Besides, the IC50 in series [2] was found to be 1100 nM; in [1] it was 2200 nM. This compound had an EC50 in series [3] of 41 nM.
Turning to `O=C1C=C2c3ccc4[nH]ncc4c3CC2(Cc2ccccc2)CC1` (configuration not stated), the concentration for half-maximal inhibition (IC50) in series [2] and in [1] was greater than 10000 nM throughout.
For `CC1=C2c3ccc4[nH]ncc4c3CC2(Cc2cccc(F)c2)CCC1=O` (configuration not stated), the IC50 is greater than 10000 nM in series [2] and 1600 nM in series [1].
